Test results published in patent US12435045B2, “Tyrosine kinase inhibitors and pharmaceutical application thereof” (JIANGSU CONCORD BIOTECHNOLOGY CO., LTD, priority 2021, dated 2025).

System: 40 L of mesothelioma cell lines
Assay: cell plate cloning experiment to detect cell proliferation
Type: cell-based
Details: 30 μM pretreatment; 200 cells/well; results after 10 days; compared with gefitinib 30 μM; FIG. 2
Method: Effects of the compound prepared in Example 1 and gefitinib were tested and compared. Experiment 1 included cell plate cloning experiments to detect cell proliferation.
• (1) 30 μM of gefitinib was used to pretreat one group of 40 L of mesothelioma cell lines, 30 μM of the compound prepared in Example 1 were used to pretreat another group of 40 L of mesothelioma cell lines, and phosphate-buffered saline (PBS) was used as a blank control group; • (2) The 40 L of cell lines in different treatment groups were collected; the cells were counted under a microscope, the cells were inoculated in a six-well plate by adjusting the number of cells to 200 cells/well (2 mL) with corresponding complete medium, and the cells were cultured in an incubator containing 5% CO2 at 37° C.; • (3) Fresh complete medium was changed every 3 days; • (4) After about 7-10 days of continuous culture, the culture medium was discarded, the cells were carefully washed with 1×PBS 3 times, and 1 mL of 4% paraformaldehyde was added to each culture dish to fix the cells for 30 minutes. The paraformaldehyde was discarded, and the cells were washed again with 1×PBS 3 times. The cells were stained with crystal violet at room temperature for 10 min, the staining solution was discarded, and the cells were washed with 1×PBS 3 times; and • (5) the cells were pictured with a camera and counted for statistical analysis. 2. […]

## COc1cc2ncnc(Nc3ccc(F)c(Cl)c3)c2cc1NC(=O)CBr [Example 1, 4-((4-fluoro-3-chlorophenyl)amino)-7-methoxy-6-((N-bromoacetyl)amino)quinazoline]
  ability in inhibiting the proliferation of tumor cells (plate cloning, colony count): significantly better ability in inhibiting the proliferation of tumor cells than gefitinib
